The values below come from patent US8653098B2, “Pyrazolopyridine PI3K inhibitor compounds and methods of use” (Genentech, Inc., priority 2008, dated 2014).

For one experiment, the system named is MDA-MB-361.1. The experiment can be described thus: In Vitro Cell Proliferation Assay (CellTiter-Glo), MDA-MB-361.1. The experiment is classed as cell-based. The note with it: MDA-MB-361.1, Breast, mutation status PI3K. As for the experimental part:
(§1) The in vitro potency of Formula I exemplary compounds was measured by the cell proliferation assay, CellTiter-Glo® Luminescent Cell Viability Assay, commercially available from Promega Corp., Madison, Wis. (Example 33). This homogeneous assay method is based on the recombinant expression of Coleoptera luciferase (U.S. Pat. No. 5,583,024; U.S. Pat. No. 5,674,713; U.S. Pat. No. 5,700,670) and determines the number of viable cells in culture based on quantitation of the ATP present, an indicator of metabolically active cells (Crouch et al (1993) J. Immunol. Meth. 160:81-88; U.S. Pat. No. 6,602,677).
(§2) format, making it amenable to automated high-throughput screening (HTS) (Cree et al (1995) Anti Cancer Drugs 6:398-404). The homogeneous assay procedure involves adding the single reagent (CellTiter-Glo® Reagent) directly to cells cultured in serum-supplemented medium. Cell washing, removal of medium and multiple pipetting steps are not required. The system detects as few as 15 cells/well in a 384-well format in 10 minutes after adding reagent and mixing.
(§3) The homogeneous “add-mix-measure” format results in cell lysis and generation of a luminescent signal proportional to the amount of ATP present. The amount of ATP is directly proportional to the number of cells present in culture. The CellTiter-Glo® Assay generates a “glow-type” luminescent signal, produced by the luciferase reaction, which has a half-life generally greater than five hours, depending on cell type and medium used. Viable cells are reflected in relative luminescence units (RLU). The substrate, Beetle Luciferin, is oxidatively decarboxylated by recombinant firefly luciferase with concomitant conversion of ATP to AMP and generation of photons. The extended half-life eliminates the need to use reagent injectors and provides flexibility for continuous or batch mode processing of multiple plates. This cell proliferation assay an be used with various multiwell formats, e.g. 96 or 384 well format. Data can be recorded by luminometer or CCD camera imaging device. The luminescence output is presented as relative light units (RLU), measured over time.
(§4) Efficacy of Formula I compounds were measured by a cell proliferation assay employing the following protocol (Promega Corp. Technical Bulletin TB288; Mendoza et al (2002) Cancer Res. 62:5485-5488):
(§5) 1. An aliquot of 100 n1 of cell culture containing about 10^4 cells (PC3, Detroit562, or MDAMB361.1) in medium was deposited in each well of a 384-well, opaque-walled plate.
(§6) 2. Control wells were prepared containing medium and without cells.
(§7) 3. The compound was added to the experimental wells and incubated for 3-5 days.
(§8) 4. The plates were equilibrated to room temperature for approximately 30 minutes.
(§9) 5. A volume of CellTiter-Glo Reagent equal to the volume of cell culture medium present in each well was added.
(§10) 6. The contents were mixed for 2 minutes on an orbital shaker to induce cell lysis.
(§11) 7. The plate was incubated at room temperature for 10 minutes to stabilize the luminescence signal.
(§12) 8. Luminescence was recorded and reported in graphs as RLU=relative luminescence units.
(§13) Alternatively, cells were seeded at optimal density in a 96 well plate and incubated for 4 days in the presence of test compound. Alamar Blue™ was subsequently added to the assay medium, and cells were incubated for 6 h before reading at 544 nm excitation, 590 nm emission. EC50 values were calculated using a sigmoidal dose response curve fit.
(§14) The anti-proliferative effects of Formula I exemplary compounds were measured by the CellTiter-Glo® Assay against various tumor cell lines, including the following: […]

The next experiment relates to PC3. The experiment can be described thus: In Vitro Cell Proliferation Assay (CellTiter-Glo), PC3. The experiment is classed as cell-based. The note with it: Homo sapiens, PC-3; PC3, Prostate, mutation status PTEN. As to the method:
as §1, §2, §3, §4, §5, §6, §7, §8, §9, §10, §11, §12, §13, §14

Another experiment addresses T1, p110 alpha PI3K (Homo sapiens, UniProt P42336).
T1 construct: purchased Upstate Cell Signaling Solutions, Charlottesville, Va
Kind of experiment: p110α (alpha) PI3K Binding Assay (fluorescence polarization; alternatively radiometric). The experiment is classed as biochemical. The note with it: tested for PI3K activity according to the methods of this invention. As to the method:
Binding Assays: Initial polarization experiments were performed on an Analyst HT 96-384 (Molecular Devices Corp, Sunnyvale, Calif.). Samples for fluorescence polarization affinity measurements were prepared by addition of 1:3 serial dilutions of p110 alpha PI3K (Upstate Cell Signaling Solutions, Charlottesville, Va.) starting at a final concentration of 20 ug/mL in polarization buffer (10 mM Tris pH 7.5, 50 mM NaCl, 4 mM MgCl2, 0.05% Chaps, and 1 mM DTT) to 10 mM PIP2 (Echelon-Inc., Salt Lake City, Utah.) final concentration. After an incubation time of 30 minutes at room temperature, the reactions were stopped by the addition of GRP-1 and PIP3-TAMRA probe (Echelon-Inc., Salt Lake City, Utah.) 100 nM and 5 nM final concentrations respectively. […] This experiment also establishes the appropriate protein concentration to use in subsequent competition experiments with inhibitors.
Inhibitor IC50 values were determined by addition of the 0.04 mg/mL p110 alpha PI3K (final concentration) combined with PIP2 (10 mM final concentration) to wells containing 1:3 serial dilutions of the antagonists in a final concentration of 25 mM ATP (Cell Signaling Technology, Inc., Danvers, Mass.) in the polarization buffer. After an incubation time of 30 minutes at room temperature, the reactions were stopped by the addition of GRP-1 and PIP3-TAMRA probe (Echelon-Inc., Salt Lake City, Utah.) 100 nM and 5 nM final concentrations respectively.
Alternatively, inhibition of PI3K was determined in a radiometric assay using purified, recombinant enzyme and ATP at a concentration of 1 uM. The Formula I compound was serially diluted in 100% DMSO. The kinase reaction was incubated for 1 h at room temperature, and the reaction was terminated by the addition of PBS. IC50 values were subsequently determined using sigmoidal dose-response curve fit (variable slope).

T1 sequence (P42336 whole entry): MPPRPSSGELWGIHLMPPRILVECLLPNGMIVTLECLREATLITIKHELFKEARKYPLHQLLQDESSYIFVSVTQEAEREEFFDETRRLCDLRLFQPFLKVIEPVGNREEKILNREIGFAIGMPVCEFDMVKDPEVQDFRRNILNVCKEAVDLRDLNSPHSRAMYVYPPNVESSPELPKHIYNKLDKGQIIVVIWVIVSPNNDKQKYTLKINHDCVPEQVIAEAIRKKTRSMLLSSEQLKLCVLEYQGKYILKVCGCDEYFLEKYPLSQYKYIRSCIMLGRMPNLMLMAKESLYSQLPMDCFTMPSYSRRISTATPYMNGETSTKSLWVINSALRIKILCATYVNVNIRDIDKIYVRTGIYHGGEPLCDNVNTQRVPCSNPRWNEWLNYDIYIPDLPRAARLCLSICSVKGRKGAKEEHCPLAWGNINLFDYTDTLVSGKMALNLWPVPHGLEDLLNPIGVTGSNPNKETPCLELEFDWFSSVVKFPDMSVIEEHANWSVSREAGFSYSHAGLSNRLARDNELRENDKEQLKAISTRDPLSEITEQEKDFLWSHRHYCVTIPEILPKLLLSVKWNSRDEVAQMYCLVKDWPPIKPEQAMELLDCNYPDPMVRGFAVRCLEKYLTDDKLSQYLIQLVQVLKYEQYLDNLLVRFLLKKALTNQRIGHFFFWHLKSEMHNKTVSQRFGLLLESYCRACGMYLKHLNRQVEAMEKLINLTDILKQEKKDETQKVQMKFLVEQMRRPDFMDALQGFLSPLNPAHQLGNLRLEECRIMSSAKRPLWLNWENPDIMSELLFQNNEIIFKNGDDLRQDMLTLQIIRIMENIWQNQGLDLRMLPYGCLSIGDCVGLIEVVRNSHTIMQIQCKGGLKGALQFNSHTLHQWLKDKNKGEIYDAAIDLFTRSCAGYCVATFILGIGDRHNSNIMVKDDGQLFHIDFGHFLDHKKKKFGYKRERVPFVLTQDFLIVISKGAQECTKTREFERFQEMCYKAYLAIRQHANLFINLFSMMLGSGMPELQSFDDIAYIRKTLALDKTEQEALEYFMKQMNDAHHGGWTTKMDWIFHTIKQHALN
T1 sequence (P27986 whole entry partner): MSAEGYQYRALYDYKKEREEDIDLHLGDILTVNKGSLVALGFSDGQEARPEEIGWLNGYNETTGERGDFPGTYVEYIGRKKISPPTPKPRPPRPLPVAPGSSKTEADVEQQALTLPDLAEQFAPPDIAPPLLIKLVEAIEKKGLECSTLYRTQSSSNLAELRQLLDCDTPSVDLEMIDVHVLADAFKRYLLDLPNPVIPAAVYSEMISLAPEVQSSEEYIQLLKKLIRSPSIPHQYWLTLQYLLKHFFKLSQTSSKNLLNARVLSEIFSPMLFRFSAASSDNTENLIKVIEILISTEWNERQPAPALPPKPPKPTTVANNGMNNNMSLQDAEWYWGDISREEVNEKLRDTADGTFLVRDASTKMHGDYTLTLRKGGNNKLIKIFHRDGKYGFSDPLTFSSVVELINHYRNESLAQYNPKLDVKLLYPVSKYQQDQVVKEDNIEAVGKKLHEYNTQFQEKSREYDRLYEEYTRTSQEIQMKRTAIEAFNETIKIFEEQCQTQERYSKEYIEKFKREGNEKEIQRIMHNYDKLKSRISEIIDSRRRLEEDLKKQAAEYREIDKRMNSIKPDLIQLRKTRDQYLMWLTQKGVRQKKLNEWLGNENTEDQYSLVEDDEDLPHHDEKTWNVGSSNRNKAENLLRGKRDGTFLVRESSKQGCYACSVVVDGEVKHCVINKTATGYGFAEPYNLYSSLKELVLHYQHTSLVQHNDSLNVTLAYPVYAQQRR

As for `Cn1ncc2c(Oc3ccc(S(C)(=O)=O)cc3)cc(-c3cccc4[nH]ncc34)nc21` [Compound 101, 6-(1H-indazol-4-yl)-1-methyl-4-(4-(methylsulfonyl)phenoxy)-1H-pyrazolo[3,4-b]pyridine], the EC50 in the experiment on MDA-MB-361.1 was determined as 965 nM; in the experiment with PC3, 881 nM. Consider `Cn1ncc2c(Oc3ccc(S(C)(=O)=O)cc3)cc(-c3ccc4[nH]ncc4c3)nc21` [Compound 102, 6-(1H-indazol-5-yl)-1-methyl-4-(4-(methylsulfonyl)phenoxy)-1H-pyrazolo[3,4-b]pyridine], for which the IC50 at p110 alpha PI3K is 224 nM.

Take `CCCNc1cc(-c2cccc3[nH]ncc23)nc2c1cnn2C` [Compound 103, 6-(1H-indazol-4-yl)-1-methyl-N-propyl-1H-pyrazolo[3,4-b]pyridin-4-amine]: on p110 alpha PI3K, the IC50 worked out at 82.8 nM. As for `Cn1ncc2c(Nc3ccc(S(C)(=O)=O)cc3)cc(-c3cccc4[nH]ncc34)nc21` [Compound 104, 6-(1H-indazol-4-yl)-1-methyl-N-(4-(methylsulfonyl)phenyl)-1H-pyrazolo[3,4-b]pyridin-4-amine], the EC50 in the experiment with MDA-MB-361.1 was determined as 475 nM; with PC3, 2000 nM. The same compound gave an IC50 at p110 alpha PI3K of 2.23 nM. In the case of `Cn1ncc2c(Oc3ccc(S(C)(=O)=O)cc3)cc(-c3cccc4c(N)n[nH]c34)nc21` [Compound 105, 7-(1-methyl-4-(4-(methylsulfonyl)phenoxy)-1H-pyrazolo[3,4-b]pyridin-6-yl)-1H-indazol-3-amine], the IC50 at p110 alpha PI3K was determined as 13.7 nM. `Cc1cccc(C)c1Oc1cc(-c2cccc3[nH]ncc23)nc2c1cnn2C` [Compound 106, 4-(2,6-dimethylphenoxy)-6-(1H-indazol-4-yl)-1-methyl-1H-pyrazolo[3,4-b]pyridine]: on p110 alpha PI3K, the IC50 worked out at 399 nM. Still for that read-out and setting: the same measure for `COc1cccc(Oc2cc(-c3cccc4[nH]ncc34)nc3c2cnn3C)c1` [Compound 107, 6-(1H-indazol-4-yl)-4-(3-methoxyphenoxy)-1-methyl-1H-pyrazolo[3,4-b]pyridine]: 53 nM; for `COc1ccc(Oc2cc(-c3cccc4[nH]ncc34)nc3c2cnn3C)cc1OC` [Compound 108, 4-(3,4-dimethoxyphenoxy)-6-(1H-indazol-4-yl)-1-methyl-1H-pyrazolo[3,4-b]pyridine]: 16 nM. For the compound `CNC(=O)c1cccc(-c2cc(-c3cccc4[nH]ncc34)nc3c2cnn3C)c1` [Compound 111, 3-(6-(1H-indazol-4-yl)-1-methyl-1H-pyrazolo[3,4-b]pyridine-4-yl)-N-methylbenzamide], the EC50 with MDA-MB-361.1 was found to be 1000 nM; with PC3 it was 2400 nM.

As for `Cn1ncc2c(-c3cccc(NS(C)(=O)=O)c3)cc(-c3cccc4[nH]ncc34)nc21` [Compound 113, N-(3-(6-(1H-indazol-4-yl)-1-methyl-1H-pyrazolo[3,4-b]pyridin-4-yl)phenyl)methanesulfonamide], the EC50 was 749 nM in the experiment on MDA-MB-361.1 and 561 nM in the experiment on PC3. The corresponding values for `Cn1ncc2c(-c3ccc(S(C)(=O)=O)cc3)cc(-c3cccc4[nH]ncc34)nc21` [Compound 115, 6-(1H-indazol-4-yl)-1-methyl-4-(4-(methylsulfonyl)phenyl)-1H-pyrazolo[3,4-b]pyridine] are 346 nM and 750 nM. In the case of `COc1ccc(-c2cc(Oc3ccc(S(C)(=O)=O)cc3)c3cnn(C)c3n2)cn1` [Compound 117, 6-(6-methoxypyridin-3-yl)-1-methyl-4-(4-(methylsulfonyl)phenoxy)-1H-pyrazolo[3,4-b]pyridine], the IC50 at p110 alpha PI3K stood at 47.5 nM. As for `COc1cc(-c2cc(Oc3ccc(S(C)(=O)=O)cc3)c3cnn(C)c3n2)ccn1` [Compound 118, 6-(2-methoxypyridin-4-yl)-1-methyl-4-(4-(methylsulfonyl)phenoxy)-1H-pyrazolo[3,4-b]pyridine], the EC50 with MDA-MB-361.1 was 2400 nM; in the experiment on PC3, 4900 nM. `Cn1ncc2c(Oc3ccc(S(C)(=O)=O)cc3)cc(-c3ccnc(O)c3)nc21` [Compound 120, 4-(1-methyl-4-(4-(methylsulfonyl)phenoxy)-1H-pyrazolo[3,4-b]pyridin-6-yl)pyridin-2-ol] had an IC50 at p110 alpha PI3K of 575 nM.

Regarding `Cn1ncc2c(Oc3ccc(S(C)(=O)=O)cc3)cc(-c3cccc4c(N)noc34)nc21` [Compound 121, 7-(1-methyl-4-(4-(methylsulfonyl)phenoxy)-1H-pyrazolo[3,4-b]pyridin-6-yl)benzo[d]isoxazol-3-amine], the half-maximal inhibitory concentration (IC50) on p110 alpha PI3K is 153 nM.
